ChEMBL document CHEMBL1201862, “PubChem BioAssay data set” (2004)
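Step 1: Grow cells in 96-well plates. Step 2: Expose to compound for 48 hours at 5 concentrations. Step 3: Interpolate endpoints linearly; if unreached, use highest concentration. GI50: concentration for 50% inhibition of growth.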 Active and inactive are the calls of the source. Cut-off read from the data, not from the text of the source: active = GI50 up to about 1.1 µM and inactive = higher.

How the values were obtained:
Assay in all cases: NCI-60 cell line screen, 48 h
OVCAR-8 = test system: OVCAR-8
UACC-257 = test system: UACC-257
MOLT-4 = test system: MOLT-4
SF-295 = test system: SF-295
NCI-H522 = test system: NCI-H522
OVCAR-5 = test system: OVCAR-5
TK-10 = test system: TK-10
NCI/ADR-RES = test system: NCI/ADR-RES
CCRF-CEM = test system: CCRF-CEM
HCC 2998 = test system: HCC 2998
RXF 393 = test system: RXF 393
HOP-62 = test system: HOP-62
SR = test system: SR
MDA-MB-435 = test system: MDA-MB-435
PC-3 = test system: PC-3
786-0 = test system: 786-0
HL-60 = test system: HL-60
NCI-H460 = test system: NCI-H460
SK-MEL-28 = test system: SK-MEL-28

Measured: GI50

CCOC(=O)N/N=C(\Cc1ccc([N+](=O)[O-])cc1)OCC
inactive: OVCAR-8 > 100 µM | UACC-257 > 100 µM | MOLT-4 > 100 µM | SF-295 > 100 µM | NCI-H522 > 100 µM | OVCAR-5 > 100 µM | TK-10 > 100 µM | NCI/ADR-RES > 100 µM | CCRF-CEM > 100 µM | HCC 2998 > 100 µM | RXF 393 > 100 µM | HOP-62 > 100 µM | SR > 100 µM | MDA-MB-435 > 100 µM | PC-3 > 100 µM | 786-0 > 100 µM

O=c1[nH]c(=O)n(COCc2ccccc2)c2ccc(Br)cc12
inactive: HL-60 > 100 µM | OVCAR-8 90.8 µM | NCI-H460 89.5 µM | UACC-257 > 100 µM | MOLT-4 > 100 µM | SF-295 87.7 µM | OVCAR-5 > 100 µM | TK-10 > 100 µM | NCI/ADR-RES 37 µM | SK-MEL-28 > 100 µM | CCRF-CEM > 100 µM | RXF 393 > 100 µM | SR > 100 µM | MDA-MB-435 > 100 µM | 786-0 > 100 µM

C/C=C1/CC(C(=O)OC)N(C(=O)OCc2ccccc2)C1=S (stereo not drawn)
inactive: OVCAR-8 > 100 µM | NCI-H460 12.3 µM | UACC-257 > 100 µM | MOLT-4 > 100 µM | SF-295 > 100 µM | NCI-H522 > 100 µM | OVCAR-5 > 100 µM | TK-10 > 100 µM | NCI/ADR-RES > 100 µM | SK-MEL-28 > 100 µM | HCC 2998 7.73 µM | RXF 393 > 100 µM | HOP-62 > 100 µM | MDA-MB-435 > 100 µM | PC-3 > 100 µM | 786-0 > 100 µM

COc1ccc(-c2c(C#N)c(N)nc(S)c2C#N)cc1
inactive: HL-60 23.1 µM | OVCAR-8 36.7 µM | NCI-H460 31 µM | UACC-257 44.6 µM | MOLT-4 17.1 µM | SF-295 27.6 µM | NCI-H522 20.5 µM | OVCAR-5 > 100 µM | TK-10 71.3 µM | NCI/ADR-RES 50 µM | SK-MEL-28 37.7 µM | HCC 2998 23.4 µM | RXF 393 33.2 µM | HOP-62 55.1 µM | SR 18.3 µM | MDA-MB-435 17.3 µM | PC-3 27.5 µM | 786-0 21.1 µM

N#C/C(=C/c1ccc([N+](=O)[O-])o1)c1ccccc1
inactive: HL-60 > 100 µM | OVCAR-8 > 100 µM | NCI-H460 > 100 µM | UACC-257 > 100 µM | MOLT-4 > 100 µM | SF-295 > 100 µM | NCI-H522 > 100 µM | OVCAR-5 > 100 µM | TK-10 > 100 µM | SK-MEL-28 > 100 µM | CCRF-CEM > 100 µM | HCC 2998 > 100 µM | RXF 393 > 100 µM | HOP-62 > 100 µM | SR > 100 µM | 786-0 > 100 µM

O=C(CN1CCOCC1)c1ccc2c(c1)oc(=O)n2CCN1CCCC1
inactive: HL-60 > 100 µM | OVCAR-8 > 100 µM | NCI-H460 > 100 µM | UACC-257 > 100 µM | MOLT-4 > 100 µM | SF-295 > 100 µM | OVCAR-5 > 100 µM | TK-10 > 100 µM | NCI/ADR-RES > 100 µM | SK-MEL-28 > 100 µM | CCRF-CEM > 100 µM | RXF 393 > 100 µM | HOP-62 > 100 µM | SR > 100 µM | MDA-MB-435 > 100 µM | PC-3 > 100 µM | 786-0 > 100 µM
